Structures can show the parent of a compound that is named as a salt.
With `COc1ccc(C2=NN(c3ccc(C(=O)N4CCN(CCN(C)C)CC4)cc3)C(=O)C3CC=CCC23)c2c1OC(C)(C)C2` (as salt: hydrochloride) [Compound 14, (4aS,8aR)-2-{4-[4-(2-Dimethylamino-ethyl)-piperazine-1-carbonyl]-phenyl}-4-(7-methoxy-2,2-dimethy-2,3-dihydro-benzofuran-4-yl)-4a,5,8,8a-tetrahydro-2H-phthalazin-1-one dihydrochloride] the melting point was 245 °C (dec.).
For `COc1ccc(C2=NN(c3ccc(C(=O)N4CCN(c5nc(-c6ccccc6C)ns5)CC4)cc3)C(=O)[C@@H]3CC=CC[C@H]23)cc1OC.Cl` [Compound 19, (4aS,8aR)-4-(3,4-Dimethoxyphenyl)-2-(4-{1-[4-(3-o-tolyl-1,2,4-thiadiazol-5-yl)-piperazin-1-yl]-methanoyl}-phenyl)-4a,5,8,8a-tetrahydro-2H-phthalazin-1-one hydrochloride], the melting point was 115 to 118 °C.
In the case of `CCOc1ccc(C2=NN(c3ccc(C(=O)N4CCN(c5ccccn5)CC4)cc3)C(=O)[C@@H]3CC=CC[C@H]23)cc1OCC` [Compound 2, (4aS,8aR)-4-(3,4-Diethoxyphenyl)-2-{4-[1-(4-pyridin-2-yl-piperazin-1-yl)-methanoyl]-phenyl}-4a,5,8,8a-tetrahydro-2H-phthalazin-1-one], the melting point is reported as 183 to 184 °C.
In the case of `COc1ccc(C2=NN(c3ccc(C(=O)N4CCN(CCCN(C)C)CC4)cc3)C(=O)[C@@H]3CC=CC[C@H]23)c2c1OC(C)(C)C2.Cl.Cl` [Compound 11, (4aS,8aR)-2-(4-{1-[4-(3-Dimethylamino-propyl)-piperazin-1-yl]-methanoyl}-phenyl)-4-(7-methoxy-2,2-dimethyl-2,3-dihydro-benzofuran-4-yl)-4a,5,8,8a-tetrahydro-2H-phthalazin-1-one dihydrochloride], the melting point is reported as 262 °C (dec.).
`CCOc1ccc(C2=NN(c3ccc(C(=O)N4CCN(c5ccccc5)CC4)cc3)C(=O)[C@@H]3CC=CC[C@H]23)cc1OCC.Cl` showed a melting point of 146 to 147 °C.
Compound `COc1ccc(C2=NN(c3ccc(C(=O)N4CCN(c5ccccc5)CC4)cc3)C(=O)[C@@H]3CC=CC[C@H]23)c2c1OC(C)(C)C2` [Compound 10, (4aS,8aR)-4-(7-Methoxy-2,2-dimethyl-2,3-dihydro-benzofuran-4-yl)-2-{4-[1-(4-phenyl-piperazin-1-yl)-methanoyl]-phenyl}-4a,5,8,8a-tetrahydro-2H-phthalazin-1-one] has a melting point of 185 to 186 °C.
Work on `CCOc1ccc(C2=NN(c3ccc(C(=O)N4CCN(C(=O)c5ccco5)CC4)cc3)C(=O)[C@@H]3CC=CC[C@H]23)cc1OCC` [Compound 4, (4aS,8aR)-4-(3,4-Diethoxyphenyl)-2-(4-{1-[4-(1-furan-2-yl-methanoyl)-piperazin-1-yl]-methanoyl}-phenyl)-4a,5,8,8a-tetrahydro-2H-phthalazin-1-one] yielded a melting point of 114 to 115 °C.
Work on `COc1ccc(C2=NN(c3ccc(C(=O)N4CCN(CC(=O)N(C)C)CC4)cc3)C(=O)[C@@H]3CC=CC[C@H]23)cc1OC.Cl` yielded a melting point of 93 to 94 °C.
